Experimental data as given in US8008488B2 (Abbott GmbH & Co. KG, priority 2003, dated 2011).
Where a name gives a salt, the structure may show the parent alone.

Columns and labels:
[1] = target: T1, human dopamine D3 receptors (Homo sapiens, UniProt P35462); assay: Dopamine D3 receptor binding, displacement of [125I]-iodosulpride; conditions: membranes from HEK-293 cells with stably expressed human D3 receptors, 0.1 nM [125I]-iodosulpride
T1 construct: expressed in transfected cells
Method: (§1) The substance to be tested was dissolved either in methanol/Chremophor® (BASF-AG) or in dimethyl sulfoxide and then diluted with water to the desired concentration.
(§2) Triplicate mixtures were carried out.
The incubation buffer contained 50 mM Tris, 120 mM NaCl, 5 mM KCl, 2 mM CaCl2, 2 mM MgCl2 and 0.1% bovine serum albumin, 10 μM quinolone, 0.1% ascorbic acid (prepared fresh each day). The buffer was adjusted to pH 7.4 with HCl.
(§3) Measurement and Evaluation:
(§4) After incubation at 25° C. for 60 minutes, the mixtures were filtered under vacuum through Whatman GF/B glass fiber filters using a cell harvester. The filters were transferred by a filter transfer system into scintillation vials. After addition of 4 ml of Ultima Gold® (Packard), the samples were shaken for one hour and then the radioactivity was calculated in a beta counter (Packard, Tricarb 2000 or 2200CA). The cp values were converted into dpm by means of a standard quench series with the aid of the instrument's own program.
(§5) Evaluation of the inhibition plots took place by iterative nonlinear regression analysis using the Statistical Analysis System (SAS) similar to the “LIGAND” program described by Munson and Rodbard.

[2] = target: T2, human dopamine D2L receptors (long isoform) (Homo sapiens, UniProt P14416); assay: Dopamine D2L receptor binding, displacement of [125I]-iodospiperone; conditions: *Ki(D2L)/Ki(D3), HEK-293 membranes, 0.01 nM [125I]-iodospiperone
T2 construct: expressed in transfected cells
T2 sequence (P14416 whole entry, canonical isoform): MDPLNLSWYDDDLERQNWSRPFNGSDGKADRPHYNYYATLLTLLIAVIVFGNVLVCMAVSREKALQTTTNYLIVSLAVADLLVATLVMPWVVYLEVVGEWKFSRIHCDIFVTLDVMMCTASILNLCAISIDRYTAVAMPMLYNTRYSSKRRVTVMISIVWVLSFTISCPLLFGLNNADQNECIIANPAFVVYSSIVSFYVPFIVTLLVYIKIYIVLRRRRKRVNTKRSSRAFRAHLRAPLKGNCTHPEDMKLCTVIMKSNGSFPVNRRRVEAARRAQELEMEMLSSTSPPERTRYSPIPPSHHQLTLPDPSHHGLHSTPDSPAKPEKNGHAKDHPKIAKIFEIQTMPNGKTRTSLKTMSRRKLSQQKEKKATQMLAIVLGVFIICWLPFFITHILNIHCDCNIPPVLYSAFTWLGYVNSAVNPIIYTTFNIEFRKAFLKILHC
Method: as §1, §2
The incubation buffer contained 50 mM Tris, 120 mM NaCl, 5 mM KCl, 2 mM CaCl2, 2 mM MgCl2 and 0.1% bovine serum albumin. The buffer was adjusted to pH 7.4 with HCl.
as §3, §4, §5

T1 sequence (P35462 whole entry): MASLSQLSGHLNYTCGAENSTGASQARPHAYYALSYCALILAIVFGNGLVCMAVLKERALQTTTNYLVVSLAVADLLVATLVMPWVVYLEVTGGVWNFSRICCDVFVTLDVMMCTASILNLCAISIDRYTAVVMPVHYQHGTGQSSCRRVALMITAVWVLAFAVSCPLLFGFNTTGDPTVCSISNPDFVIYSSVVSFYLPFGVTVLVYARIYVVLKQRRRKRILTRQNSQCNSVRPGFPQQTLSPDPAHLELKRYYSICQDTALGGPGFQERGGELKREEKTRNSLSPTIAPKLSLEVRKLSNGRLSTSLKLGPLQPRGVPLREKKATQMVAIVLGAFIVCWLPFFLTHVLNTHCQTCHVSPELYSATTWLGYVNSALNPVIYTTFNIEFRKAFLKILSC

## C/C(=C\CN1CCN(c2cc(C(F)(F)F)nc(C(C)(C)C)n2)CC1)Cn1ccc(=O)[nH]c1=O [Example 46, 1-(2E)-{4-[4-(2-tert-Butyl-6-trifluoromethylpyrimidin-4-yl)piperazin-1-yl]-2-methylbut-2-enyl}-1H-pyrimidine-2,4-dione]
[1]
  Ki: 5.41 nM
[2]
  Selectivity D3 vs. D2L*: 43

## CCCc1cc(N2CCN(CCCCn3cc(C#N)c(=O)[nH]c3=O)CC2)nc(C(C)(C)C)n1 [Example 47, 1-{4-[4-(2-tert-Butyl-6-propylpyrimidin-4-yl)piperazin-1-yl]butyl}-2,4-dioxo-1,2,3,4-tetrahydropyrimidine-5-carbonitrile]
[1]
  Ki: 4.87 nM
[2]
  Selectivity D3 vs. D2L*: 51

## CCCc1cc(N2CCN(CCCCn3ccc(-c4ccccc4)nc3=O)CC2)nc(C(C)(C)C)n1 [Example 49, 1-{4-[4-(2-tert-Butyl-6-propylpyrimidin-4-yl)piperazin-1-yl]butyl}-4-phenyl-1H-pyrimidin-2-one]
[1]
  Ki: 0.54 nM
[2]
  Selectivity D3 vs. D2L*: 86

## CCCc1cc(N2CCN(CCCCn3ccc(-c4ccco4)nc3=O)CC2)nc(C(C)(C)C)n1 [Example 50, 1-{4-[4-(2-tert-Butyl-6-propylpyrimidin-4-yl)piperazin-1-yl]butyl}-4-furan-2-yl-1H-pyrimidin-2-one]
[1]
  Ki: 0.72 nM
[2]
  Selectivity D3 vs. D2L*: 77

## CC(C)(C)c1nc(N2CCN(CCCCn3cc(Cl)c(=O)[nH]c3=O)CC2)cc(C(F)(F)F)n1 [Example 52, 1-{4-[4-(2-tert-Butyl-6-trifluoromethylpyrimidin-4-yl)piperazin-1-yl]butyl}-5-chloro-1H-pyrimidine-2,4-dione]
[1]
  Ki: 2.28 nM
[2]
  Selectivity D3 vs. D2L*: 97

## CCCc1cc(N2CCN(CCCCn3cc(F)c(=O)[nH]c3=O)CC2)nc(C(C)(C)C)n1 [Example 53, 1-{4-[4-(2-tert-Butyl-6-propylpyrimidin-4-yl)piperazin-1-yl]butyl}-5-fluoro-1H-pyrimidine-2,4-dione]
[1]
  Ki: 2.32 nM
[2]
  Selectivity D3 vs. D2L*: 56

## Cc1cn(CCCC(C)N2CCN(c3cc(C(F)(F)F)nc(C(C)(C)C)n3)CC2)c(=O)[nH]c1=O (centres unmarked) [Example 54, 1-{4-[4-(2-tert-Butyl-6-trifluoromethylpyrimidin-4-yl)piperazin-1-yl]pentyl}-5-methyl-1H-pyrimidine-2,4-dione]
[1]
  Ki: 9.25 nM
[2]
  Selectivity D3 vs. D2L*: 52

## CC(C)(C)c1nc(N2CCN(CCCCn3cc(C(F)(F)F)c(=O)[nH]c3=O)CC2)cc(C(F)(F)F)n1 [Example 55, 1-{4-[4-(2-tert-Butyl-6-trifluoromethylpyrimidin-4-yl)piperazin-1-yl]butyl}-5-trifluoromethyl-1H-pyrimidine-2,4-dione]
[1]
  Ki: 5.44 nM
[2]
  Selectivity D3 vs. D2L*: 119

## CCCc1cc(N2CCN(CCCCn3cc(C(F)(F)F)c(=O)[nH]c3=O)CC2)nc(C(C)(C)C)n1 [Example 56, 1-{4-[4-(2-tert-Butyl-6-propylpyrimidin-4-yl)piperazin-1-yl]butyl}-5-trifluoromethyl-1H-pyrimidine-2,4-dione]
[1]
  Ki: 1.02 nM
[2]
  Selectivity D3 vs. D2L*: 134

## CCCc1cc(N2CCN(CCCCn3ccc(-c4ccccc4C)nc3=O)CC2)nc(C(C)(C)C)n1 [Example 57, 4-(2-tert-Butyl-6-propylpyrimidin-4-yl)-1-[4-(2-oxo-4-(o-tolyl)-2H-pyrimidin-1-yl)butyl]-piperazin-1-ium fumarate]
[1]
  Ki: 0.96 nM
[2]
  Selectivity D3 vs. D2L*: 111

## CCCc1cc(N2CCN(CCCCn3ccc(-c4cccc(C)c4)nc3=O)CC2)nc(C(C)(C)C)n1 [Example 59, 1-{4-[4-(2-tert-Butyl-6-propylpyrimidin-4-yl)piperazin-1-yl]butyl}-4-(m-tolyl)-1H-pyrimidin-2-one]
[1]
  Ki: 1.8 nM
[2]
  Selectivity D3 vs. D2L*: 44

## Cc1ccccc1-c1ccn(CCCCN2CCN(c3cc(C(F)(F)F)nc(C(C)(C)C)n3)CC2)c(=O)n1 [Example 60, 4-(2-tert-Butyl-6-trifluoromethylpyrimidin-4-yl)-1-[4-(2-oxo-4-(o-tolyl)-2H-pyrimidin-1-yl)butyl]piperazin-1-ium fumarate]
[1]
  Ki: 4.33 nM
[2]
  Selectivity D3 vs. D2L*: 91

## CCCc1cc(N2CCN(C(C)CCCn3ccc(=O)[nH]c3=O)CC2)nc(C(C)(C)C)n1 (centres unmarked) [Example 61, 4-(2-tert-Butyl-6-propylpyrimidin-4-yl)-1-[4-(2,4-dioxo-3,4-dihydro-2H-pyrimidin-1-yl)-1-methylbutyl]piperazin-1-ium fumarate]
[1]
  Ki: 5.84 nM
[2]
  Selectivity D3 vs. D2L*: 28

## CC(CCCn1ccc(=O)[nH]c1=O)N1CCN(c2cc(C(F)(F)F)nc(C(C)(C)C)n2)CC1 (centres unmarked) [Example 62, 1-{4-[4-(2-tert-Butyl-6-trifluoromethylpyrimidin-4-yl)piperazin-1-yl]pentyl}-1H-pyrimidine-2,4-dione]
[1]
  Ki: 11 nM
[2]
  Selectivity D3 vs. D2L*: 49

## CCCc1cc(N2CCN(C/C=C(\C)Cn3cc(C)c(=O)[nH]c3=O)CC2)nc(C(C)(C)C)n1 [Example 65]
[1]
  Ki: 3.31 nM
[2]
  Selectivity D3 vs. D2L*: 62

## Cc1ccc(-c2ccn(CCCCN3CCN(c4cc(C(F)(F)F)nc(C(C)(C)C)n4)CC3)c(=O)n2)cc1 [Example 66, 4-(2-tert-Butyl-6-trifluoromethylpyrimidin-4-yl)-1-[4-(2-oxo-4-(p-tolyl)-2H-pyrimidin-1-yl)butyl]piperazin-1-ium fumarate]
[1]
  Ki: 13.5 nM
[2]
  Selectivity D3 vs. D2L*: 37

## CC(C)(C)c1nc(N2CCN(CCCCn3ccc(-c4ccccc4F)nc3=O)CC2)cc(C(F)(F)F)n1 [Example 67, 4-(2-tert-Butyl-6-trifluoromethylpyrimidin-4-yl)-1-{4-[4-(2-fluorophenyl)-2-oxo-2H-pyrimidin-1-yl]butyl}piperazin-1-ium fumarate]
[1]
  Ki: 10.1 nM
[2]
  Selectivity D3 vs. D2L*: 39

## CCCc1cc(N2CCN(CCC(C)Cn3cc(C)c(=O)[nH]c3=O)CC2)nc(C(C)(C)C)n1 (centres unmarked) [Example 70, 1-{4-[4-(2-tert-Butyl-6-propylpyrimidin-4-yl)piperazin-1-yl]-2-methylbutyl}-5-methyl-1H-pyrimidine-2,4-dione]
[1]
  Ki: 10 nM
[2]
  Selectivity D3 vs. D2L*: 30

## CCCc1cc(N2CCN(CCCCn3ccc(-c4cccc(F)c4)nc3=O)CC2)nc(C(C)(C)C)n1 [Example 72, 4-(2-tert-Butyl-6-propylpyrimidin-4-yl)-1-{4-[4-(3-fluorophenyl)-2-oxo-2H-pyrimidin-1-yl]butyl}piperazin-1-ium fumarate]
[1]
  Ki: 1.49 nM
[2]
  Selectivity D3 vs. D2L*: 54

## CC(C)(C)c1nc(N2CCN(CCCCn3ccc(-c4cccc(F)c4)nc3=O)CC2)cc(C(F)(F)F)n1 [Example 73, 4-(2-tert-Butyl-6-trifluoromethylpyrimidin-4-yl)-1-{4-[4-(3-fluorophenyl)-2-oxo-2H-pyrimidin-1-yl]butyl}piperazin-1-ium fumarate]
[1]
  Ki: 9.3 nM
[2]
  Selectivity D3 vs. D2L*: 31

## CCCc1cc(N2CCN(CCCCn3ccc(C4CCC4)nc3=O)CC2)nc(C(C)(C)C)n1 [Example 74, 1-{4-[4-(2-tert-Butyl-6-propylpyrimidin-4-yl)piperazin-1-yl]butyl}-4-cyclobutyl-1H-pyrimidin-2-one]
[1]
  Ki: 1.52 nM
[2]
  Selectivity D3 vs. D2L*: 53

## CCCc1cc(N2CCN(CCCCn3ccc(-c4ccc(C)cc4)nc3=O)CC2)nc(C(C)(C)C)n1 [Example 75, 4-(2-tert-Butyl-6-propylpyrimidin-4-yl)-1-[4-(2-oxo-4-(p-tolyl)-2H-pyrimidin-1-yl)butyl]piperazine 1-fumarate]
[1]
  Ki: 2.3 nM
[2]
  Selectivity D3 vs. D2L*: 80
